# Test results from patent US10138212B2, “Aminoquinazoline compounds as A2A antagonist” (Merck Sharp & Dohme Corp., priority 2015, dated 2018).
# Columns and labels:
# [1] = molecular target: human A1 receptor (Homo sapiens (Human), UniProt P30542); assay: A1 competition binding assay using Scintillation Proximity technology; selectivity = A1 binding Ki / A2a binding Ki; settings: A1 binding Ki divided by A2a binding Ki
# In short: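 SPA competition using 5 ug membranes from CHO-K1 cells expressing human A1, pretreated with adenosine deaminase. Radioligand was 0.7 nM [3H]DPCPX (final), with compound at 3000–0.15 nM in DPBS + 10 mM MgCl2. Incubation was 1 h at room temperature. Non-specific binding was defined with 1 uM DPCPX, and Ki was derived as for A2a.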
# [2] = molecular target: human A2a receptor (Homo sapiens (Human), UniProt P29274); assay: A2a competition binding assay using Scintillation Proximity technology
# Chain of human A2a receptor (P29274 whole entry): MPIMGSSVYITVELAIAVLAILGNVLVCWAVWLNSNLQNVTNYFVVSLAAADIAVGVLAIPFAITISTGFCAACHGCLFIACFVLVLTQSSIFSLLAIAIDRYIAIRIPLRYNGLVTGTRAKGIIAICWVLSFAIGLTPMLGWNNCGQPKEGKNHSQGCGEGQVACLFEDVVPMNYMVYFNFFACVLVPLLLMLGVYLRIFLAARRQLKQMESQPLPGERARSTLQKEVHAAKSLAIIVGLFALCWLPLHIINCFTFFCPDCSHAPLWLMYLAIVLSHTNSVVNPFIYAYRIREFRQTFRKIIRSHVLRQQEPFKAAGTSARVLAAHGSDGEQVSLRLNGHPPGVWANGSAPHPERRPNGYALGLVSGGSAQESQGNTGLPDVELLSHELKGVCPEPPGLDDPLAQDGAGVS
# In short: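 Membranes (0.25 or 1 μg) from HEK293 expressing the receptor were pretreated with adenosine deaminase and bound to WGA-coated yttrium silicate SPA beads. They were incubated 1 h at room temperature with compound at 3000–0.15 nM and 0.5 nM tritiated pyrazolotriazolopyrimidine ligand in Ca/Mg-free DPBS with 10 mM MgCl2. Ki was derived from […] by Cheng-Prusoff.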
# [3] = 0.25 μg of membranes from HEK293 cells expressing the human A2a receptor
# [4] = * assay run with 1 μg of membranes versus 0.25 μg, HEK293 cells expressing the human A2a receptor
# Chain of human A1 receptor (P30542 whole entry): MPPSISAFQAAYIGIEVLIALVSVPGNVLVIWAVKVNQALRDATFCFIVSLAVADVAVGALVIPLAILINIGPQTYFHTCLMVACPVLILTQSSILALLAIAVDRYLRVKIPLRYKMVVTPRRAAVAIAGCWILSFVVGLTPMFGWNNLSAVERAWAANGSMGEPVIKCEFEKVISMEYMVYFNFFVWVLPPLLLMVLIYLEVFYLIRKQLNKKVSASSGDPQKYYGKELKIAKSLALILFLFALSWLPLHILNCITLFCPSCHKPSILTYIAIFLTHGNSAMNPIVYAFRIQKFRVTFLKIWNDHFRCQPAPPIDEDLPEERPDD
A2a selectivity (A2a A1 binding selectivity) [1],"Ki [2, 3]","Ki [2, 4]",Compound
60,5.3 nM,,"COc1cccc2c(C(=O)N[C@@H]3CCc4ccccc43)nc(N)nc12 [Example 33, 2-amino-N-[(1R)-indan-1-yl]-8-methoxy-quinazoline-4-carboxamide]"
9,415 nM,,"COc1cccc2c(C(=O)NC(C)(C)c3ccccn3)nc(N)nc12 [Example 39, 2-amino-8-methoxy-N-[1-methyl-1-(2-pyridyl)ethyl]quinazoline-4-carboxamide]"
11,,7.7 nM,"CSc1cccc2c(C(=O)NCc3cccc4cccnc34)nc(N)nc12 [Example 94, 2-amino-8-methylsulfanyl-N-(8-quinolylmethyl)quinazoline-4-carboxamide]"
3,14 nM,,"Nc1nc(C(=O)NCc2cc(C3CC3)on2)c2cccc(F)c2n1 [Example 83, 2-amino-N-[(5-cyclopropylisoxazol-3-yl)methyl]-8-fluoro-quinazoline-4-carboxamide]"
31,1.6 nM,,"Nc1nc(C(=O)NCc2cccc(Cc3ccncc3)n2)c2cccc(F)c2n1 [Example 112, 2-amino-8-fluoro-N-[[6-(4-pyridylmethyl)-2-pyridyl]methyl]quinazoline-4-carboxamide]"
314,0.6 nM,,"COc1cccc2c(C(=O)NCc3cccc(C4(O)CCC4)n3)nc(N)nc12 [Example 4, 2-amino-N-[[6-(1-hydroxycyclobutyl)-2-pyridyl]methyl]-8-methoxy-quinazoline-4-carboxamide]"
141,8 nM,,"Nc1nc(C(=O)NCC2CCN(c3ncc(F)cn3)CC2)c2cccc(F)c2n1 [Example 86, 2-amino-8-fluoro-N-[[1-(5-fluoropyrimidin-2-yl)-4-piperidyl]methyl]quinazoline-4-carboxamide]"
146,0.2 nM,,"COc1cccc2c(C(=O)NCc3cccc(C(C)C)n3)nc(N)nc12 [Example 5, 2-amino-N-[(6-isopropyl-2-pyridyl)methyl]-8-methoxy-quinazoline-4-carboxamide]"
764,0.4 nM,,"COc1cccc2c(C(=O)NCc3cccc(C(C)(C)O)n3)nc(N)nc12 [Example 9, 2-amino-N-[[6-(1-hydroxy-1-methyl-ethyl)-2-pyridyl]methyl]-8-methoxy-quinazoline-4-carboxamide]"
180,0.9 nM,,"COc1cccc2c(C(=O)NCc3ncccc3C)nc(N)nc12 [Example 24, 2-amino-8-methoxy-N-[(3-methyl-2-pyridyl)methyl]quinazoline-4-carboxamide]"
140,1.1 nM,,"COc1cccc2c(C(=O)NCc3cccc(CO[C@H]4CCOC4)n3)nc(N)nc12 [Example 52, 2-amino-8-methoxy-N-[[6-[[(3S)-tetrahydrofuran-3-yl]oxymethyl]-2-pyridyl]methyl]quinazoline-4-carboxamide]"
53,2.6 nM,,"COc1cccc2c(C(=O)NCc3ncccc3C(F)(F)F)nc(N)nc12 [Example 19, 2-amino-8-methoxy-N-[[3-(trifluoromethyl)-2-pyridyl]methyl]quinazoline-4-carboxamide]"
169,0.3 nM,,"COc1cccc2c(C(=O)NCc3cccc(C4CC4)n3)nc(N)nc12 [Example 7, 2-amino-N-[(6-cyclopropyl-2-pyridyl)methyl]-8-methoxy-quinazoline-4-carboxamide]"
114,0.3 nM,,"COc1cccc2c(C(=O)NCc3cccc4ccncc34)nc(N)nc12 [Example 16, 2-amino-N-(8-isoquinolylmethyl)-8-methoxy-quinazoline-4-carboxamide]"
118,2.9 nM,,"COc1cccc2c(C(=O)NCc3ncc(F)cc3F)nc(N)nc12 [Example 29, 2-amino-N-[(3,5-difluoro-2-pyridyl)methyl]-8-methoxy-quinazoline-4-carboxamide]"
111,6.3 nM,,"COc1cccc2c(C(=O)NCc3cccc(CSc4nc5ccccc5[nH]4)n3)nc(N)nc12 [Example 56, 2-amino-N-[[6-(1H-benzimidazol-2-ylsulfanylmethyl)-2-pyridyl]methyl]-8-methoxy-quinazoline-4-carboxamide]"

A2a selectivity (A2a A1 binding selectivity) [1],"Ki [2, 3]","Ki [2, 4]",Compound
8,6.7 nM,,"C[C@@H](NC(=O)c1nc(N)nc2c(F)cccc12)c1cccc2cccnc12 [Example 88, 2-amino-8-fluoro-N-[(1R)-1-(8-quinolyl)ethyl]quinazoline-4-carboxamide]"
235,0.9 nM,,"Nc1nc(C(=O)NCc2ccccc2-c2ncccn2)c2cccc(F)c2n1 [Example 64, 2-amino-8-fluoro-N-[(2-pyrimidin-2-ylphenyl)methyl]quinazoline-4-carboxamide]"
12,6.9 nM,,"Cc1cccn2cc(CNC(=O)c3nc(N)nc4c(F)cccc34)nc12 [Example 81, 2-amino-8-fluoro-N-[(8-methylimidazo[1,2-a]pyridin-2-yl)methyl]quinazoline-4-carboxamide]"
39,,5.3 nM,"COc1cccc2c(C(=O)NCc3cccc4c3OC(F)(F)O4)nc(N)nc12 [Example 42, 2-amino-N-[(2,2,-difluoro-1,3-benzodioxol-4-yl)methyl]-8-methoxy-quinazoline-4-carboxamide]"
32,0.2 nM,,"COc1cccc2c(C(=O)NCc3cccc4cccnc34)nc(N)nc12 [Example 12, 2-amino-8-methoxy-N-(8-quinolylmethyl)quinazoline-4-carboxamide]"
160,1.3 nM,,"COc1cccc2c(C(=O)NCc3cccc(COCC4CC4)n3)nc(N)nc12 [Example 50, 2-amino-N-[[6-(cyclopropylmethoxy-methyl)-2-pyridyl]methyl]-8-methoxy-quinazoline-4-carboxamide]"
117,1.5 nM,,"COc1cccc2c(C(=O)NCc3ncc(C)cc3C)nc(N)nc12 [Example 28, 2-amino-N-[(3,5-dimethyl-2-pyridyl)methyl]-8-methoxy-quinazoline-4-carboxamide]"
273,4.6 nM,,"COc1cccc2c(C(=O)NCc3cccc(CO)n3)nc(N)nc12 [Example 14, 2-amino-N-[[6-(hydroxymethyl)-2-pyridyl]methyl]-8-methoxy-quinazoline-4-carboxamide]"
184,0.4 nM,,"COc1cccc2c(C(=O)NCc3cccc(C)c3)nc(N)nc12 [Example 17, 2-amino-8-methoxy-N-(m-tolylmethyl)quinazoline-4-carboxamide]"
89,0.5 nM,,"COc1cccc2c(C(=O)NCc3nc(C)ccc3F)nc(N)nc12 [Example 20, 2-amino-N-[(3-fluoro-6-methyl-2-pyridyl)methyl]-8-methoxy-quinazoline-4-carboxamide]"
49,,2.1 nM,"COc1cccc2c(C(=O)NCc3cccc(COc4cccc(F)c4)n3)nc(N)nc12 [Example 54, 2-amino-N-[[6-[(3-fluorophenxoy)methyl]-2-pyridyl]methyl]-8-methoxy-quinazoline-4-carboxamide]"
16,,5 nM,"[2H]C([2H])(NC(=O)c1nc(N)nc2c(OC)cccc12)c1cccc(Oc2cncc(OC)c2)n1 [Example 58, 2-amino-N-[dideuterio-[6-[(5-methoxy-3-pyridyl)oxy]-2-pyridyl]methyl]-8-methoxy-quinazoline-4-carboxamide]"
62,0.8 nM,,"COc1ccc(C)c(CNC(=O)c2nc(N)nc3c(F)cccc23)n1 [Example 77, 2-amino-8-fluoro-N-[(6-methoxy-3-methyl-2-pyridyl)methyl]quinazoline-4-carboxamide]"
13,,6.6 nM,"Nc1nc(C(=O)NCc2nccc3ccccc23)c2cccc(F)c2n1 [Example 89, 2-amino-8-fluoro-N-(isoquinolin-1-ylmethyl)quinazoline-4-carboxamide]"
50,1 nM,,"CC(C)c1cccc(-c2cccc(CNC(=O)c3nc(N)nc4c(F)cccc34)n2)c1 [Example 65, 2-amino-8-fluoro-N-[[6-(3-isopropylphenyl)-2-pyridyl]methyl]quinazoline-4-carboxamide]"
36,,3.8 nM,"N#Cc1ccc(OCc2cccc(CNC(=O)c3nc(N)nc4c(F)cccc34)n2)cc1 [Example 47, 2-amino-N-[[6-[(4-cyanophenoxy)methyl]-2-pyridyl]methyl]-8-fluoro-quinazoline-4-carboxamide]"

Compound,A2a selectivity (A2a A1 binding selectivity) [1],"Ki [2, 3]","Ki [2, 4]"
"COc1cccc2c(C(=O)NCc3cccc(COC4CCCC4)n3)nc(N)nc12 [Example 48, 2-amino-N-[[6-(cyclopentoxymethyl)-2-pyridyl]methyl]-8-methoxy-quinazoline-4-carboxamide]",447,0.5 nM,
"COc1cccc2c(C(=O)NCc3cccc(COCC(C)C)n3)nc(N)nc12 [Example 51, 2-amino-N-[[6-(isobutoxymethyl)-2-pyridyl]methyl]-8-methoxy-quinazoline-4-carboxamide]",90,1.9 nM,
